# Test results taken from PMC10079235 (PLOS Neglected Tropical Diseases, 2023).
# Where two headings read alike, the source gives them in different places.
# How the values were obtained:
# HCT-8/MDR1(PTX) cells = tested on: HCT-8/MDR1(PTX) cells
# Method: (§1) Host cell drug tolerance to specified inhibitors was evaluated by 3-(4,5-dimethylthiazol-2-yl)-5-(3-carboxymethoxyphenyl)-2-(4-sulfophenyl)-2H-tetrazolium (MTS) assay. WT and transgenic host cells were seeded in 96-well plates (10,000 cells/well) and cultured for 24 h, followed by the addition of specified compounds at serially diluted concentrations and continued culture for 41 h. After 3 washes with serum-free medium, MTS solution (Saint-Bio, Shanghai, China) was added into the plates (20 μL/well) and incubated at 37°C for 2 h. Optical density at 490 nm (OD490) was measured using a Synergy LX multi-mode reader (BioTek, Winooski, VT). Drug tolerance was indicated by half-maximal cytotoxic concentrations (TC50 values) calculated by nonlinear regression using 4PL model. Selectivity index (SI) for each compound was determined by the ratio between TC50 and EC50 values (SI = TC50/EC50).
# (§2) Surviving cells were allowed to recover in drug-free medium for 3–5 d to near confluence (round 1). The selection/recovery cycle were repeated once (round 2). […] The resulting cell lines after PTX or NTZ selection were designated as WT(PTX), NC(PTX) and MDR1(PTX), or WT(NTZ), NC(NTZ) and MDR1(NTZ), respectively (Tables 1 and S2).
# HCT-8/MDR1 cells = conditions: human, 41 h
# HCT-8/NC(PTX) cells = experiment: MTS cytotoxicity (drug tolerance) assay; conditions: NC(PTX) cells, after selection by PTX
# Method: as §1, §2
# HCT-8/WT(PTX) cells = experiment: MTS cytotoxicity (drug tolerance) assay; conditions: WT(PTX) cells, after selection by PTX
# Method: as §1, §2
# HCT-8/MDR1(NTZ) cells = experiment: MTS cytotoxicity (drug tolerance) assay; conditions: human, 41 h
# Method: as §1, §2
# Cryptosporidium parvum = experiment: Anti-cryptosporidial efficacy assay (44-h infection/qRT-PCR); conditions: for EC50: Cryptosporidium parvum; for On-target (Eon) rate at EC50: Eq 2; for Eoff, proportion of off-parasite-target effect / Eon, proportion of on-parasite-target effect: MDR1(PTX) vs. NC model, Eq 3 and 4
# HCT-8/WT cells = experiment: MTS cytotoxicity (drug tolerance) assay; conditions: WT cells, no drug selection; MTS assay
# Method: as §1
# HCT-8/WT(NTZ) cells = experiment: MTS cytotoxicity (drug tolerance) assay; conditions: WT(NTZ) cells, after selection by NTZ
# Method: as §1
# (§3) Surviving cells were allowed to recover in drug-free medium for 3–5 d to near confluence (round 1). The selection/recovery cycle were repeated once (round 2). […] Finally, all cells were cultured at the final selection concentrations of PTX or NTZ for ≥7 d, followed by culture in drug-free medium for 14 d. At this time point, cells were used for cytotoxicity and efficacy assays or cryopreserved in a liquid nitrogen tank. The resulting cell lines after PTX or NTZ selection were designated as WT(PTX), NC(PTX) and MDR1(PTX), or WT(NTZ), NC(NTZ) and MDR1(NTZ), respectively (Tables 1 and S2).
# HCT-8/NC(NTZ) cells = experiment: MTS cytotoxicity (drug tolerance) assay; conditions: NC(NTZ) cells, after selection by NTZ
# Method: as §1, §3
# HCT-8/NC cells = experiment: MTS cytotoxicity (drug tolerance) assay; conditions: no drug selection
# MDR1 = tested on: MDR1; design: method as in PMID 34648615; conditions: 300 nM ref 15; cited from earlier work
# HCT-8 cells = experiment: MTS cytotoxicity assay with MDR1 inhibitor elacridar, several HCT-8 derived cell lines; conditions: 300 nM, NC, MDR1, NC(PTX), NC(NTZ)
# Method: If the increase of tolerance to a specified inhibitor in host cells was truly mediated by MDR1, specific inhibition of MDR1 would restore the sensitivity of the host cells to the inhibitor (as indicated by TC50). Additionally, inhibition of MDR1 would not affect the anti-cryptosporidial efficacy (EC50) if the drug that acted only on the parasite target, or partially affect the efficacy (EC50) if the drug that also acted on host cell target. This notion was tested using elacridar, a third generation of MDR1 inhibitor [18, 23–25]. […] We then examined the effect of elacridar on the cytotoxicity and anti-cryptosporidial efficacies of the six inhibitors in the range of TC50 or EC50 concentrations.
# Host cell drug tolerance to specified inhibitors was evaluated by 3-(4,5-dimethylthiazol-2-yl)-5-(3-carboxymethoxyphenyl)-2-(4-sulfophenyl)-2H-tetrazolium (MTS) assay. […] Optical density at 490 nm (OD490) was measured using a Synergy LX multi-mode reader (BioTek, Winooski, VT). Drug tolerance was indicated by half-maximal cytotoxic concentrations (TC50 values) calculated by nonlinear regression using 4PL model. Selectivity index (SI) for each compound was determined by the ratio between TC50 and EC50 values (SI = TC50/EC50).
structure (smiles),measurement,setting,value
"CC[C@]1(O)C[C@H]2CN(CCc3c([nH]c4ccccc34)[C@@](C(=O)OC)(c3cc4c(cc3OC)N(C=O)[C@H]3[C@@](O)(C(=O)OC)[C@H](OC(C)=O)[C@]5(CC)C=CCN6CC[C@]43[C@@H]65)C2)C1 [Vincristine, Vincristine sulphate]",TC50,"HCT-8/MDR1(PTX) cells; MDR1(PTX) cells, after selection by PTX",21.51 µM
same,Pct change of TC50 (vs NC),HCT-8/MDR1(PTX) cells; MDR1(PTX) vs NC cells,200.8%
same,TC50,HCT-8/MDR1 cells,12.61 µM
same,TC50,HCT-8/NC(PTX) cells,7.29 µM
same,TC50,HCT-8/WT(PTX) cells,6.96 µM
same,TC50,HCT-8/MDR1(NTZ) cells,12.38 µM
same,EC50,"Cryptosporidium parvum; MDR1, read-out: Antiparasitic efficacy (EC50), C. parvum cultured in MDR1(PTX) host cells",2770 nM
same,EC50,"Cryptosporidium parvum; read-out: Antiparasitic efficacy (EC50), C. parvum cultured in NC host cells",1580 nM
same,EC50,"Cryptosporidium parvum; read-out: Antiparasitic efficacy (EC50), C. parvum cultured in WT host cells",1640 nM
same,On-target (Eon) rate at EC50,Cryptosporidium parvum; MDR1(PTX) cell model,62.5%
same,On-target (Eon) rate at EC50,"Cryptosporidium parvum; MDR1(PTX) cell model, listed as VCT",62.5%
same,Off-target (Eoff) rate at EC50,"Cryptosporidium parvum; MDR1(PTX) cell model, from Pct changes of EC50 and TC50 (Eq 1)",37.5%
same,Action on parasite target (on-target) conclusion,Cryptosporidium parvum; MDR1-transgenic host cell model,partially on-target
same,"Eoff, proportion of off-parasite-target effect",Cryptosporidium parvum; at EC10,38.10%
same,"Eon, proportion of on-parasite-target effect",Cryptosporidium parvum; at EC10,61.90%
same,"Eon, proportion of on-parasite-target effect","Cryptosporidium parvum; at EC10, listed as VCT",61.9%
same,"Eoff, proportion of off-parasite-target effect",Cryptosporidium parvum; at EC20,38.00%
same,"Eon, proportion of on-parasite-target effect",Cryptosporidium parvum; at EC20,62.00%
same,"Eoff, proportion of off-parasite-target effect",Cryptosporidium parvum; at EC30,37.90%
same,"Eon, proportion of on-parasite-target effect",Cryptosporidium parvum; at EC30,62.10%
same,"Eoff, proportion of off-parasite-target effect",Cryptosporidium parvum; at EC40,37.80%
same,"Eon, proportion of on-parasite-target effect",Cryptosporidium parvum; at EC40,62.20%
same,"Eoff, proportion of off-parasite-target effect",Cryptosporidium parvum; at EC50,37.7%
same,"Eon, proportion of on-parasite-target effect",Cryptosporidium parvum; at EC50,62.3%
same,"Eoff, proportion of off-parasite-target effect",Cryptosporidium parvum; at EC60,37.60%
same,"Eon, proportion of on-parasite-target effect",Cryptosporidium parvum; at EC60,62.40%
same,"Eoff, proportion of off-parasite-target effect",Cryptosporidium parvum; at EC70,37.50%
same,"Eon, proportion of on-parasite-target effect",Cryptosporidium parvum; at EC70,62.50%
same,"Eoff, proportion of off-parasite-target effect",Cryptosporidium parvum; at EC80,37.30%
same,"Eon, proportion of on-parasite-target effect",Cryptosporidium parvum; at EC80,62.70%
same,"Eoff, proportion of off-parasite-target effect",Cryptosporidium parvum; at EC90,37.10%
same,"Eon, proportion of on-parasite-target effect",Cryptosporidium parvum; at EC90,62.90%
same,"Eon, proportion of on-parasite-target effect","Cryptosporidium parvum; at EC90, listed as VCT",62.9%
same,TC50,HCT-8/WT cells,6.72 µM
same,TC50,HCT-8/WT(NTZ) cells,7.04 µM
same,TC50,HCT-8/NC(NTZ) cells,6.87 µM
same,TC50,HCT-8/NC cells,7.15 µM
COc1cc2c(cc1OC)CN(CCc1ccc(NC(=O)c3cccc4c(=O)c5cccc(OC)c5[nH]c34)cc1)CC2 [elacridar],Inhibition on the activity of MDR1,MDR1,strong inhibition
same,Effect on growth of C. parvum,"Cryptosporidium parvum; 300 nM, cultured with NC, MDR1(PTX) and MDR1(NTZ) cells",no or little effect
same,Effect on growth of host cells,HCT-8 cells,no or little effect
